# In ChEMBL document CHEMBL1921764, “Substrate profiling of IGF-1R and InsR: identification of a potent pentamer substrate” (Bioorg Med Chem Lett, 2011):
# Calls of active or inactive are those of the source. No cut-off for these calls is given here. Peptide text beside a SMILES is read from it.
# What was measured:
# [1] = target: Insulin-like growth factor 1 receptor (Homo sapiens) (UniProt P08069); experiment: Activity of pre-activated human GST-His6-tagged IGF-1R assessed as compound phosphorylation at 500 uM measured every 2 mins for 60 mins by ADP-Quest assay
# [2] = target: Insulin receptor (Homo sapiens) (UniProt P06213); experiment: Activity of pre-activated human GST-His6-tagged InsR assessed as compound phosphorylation at 500 uM measured every 2 mins for 60 mins by ADP-Quest assay
# Insulin receptor (Homo sapiens), sequence (P06213 28-758 limits assumed): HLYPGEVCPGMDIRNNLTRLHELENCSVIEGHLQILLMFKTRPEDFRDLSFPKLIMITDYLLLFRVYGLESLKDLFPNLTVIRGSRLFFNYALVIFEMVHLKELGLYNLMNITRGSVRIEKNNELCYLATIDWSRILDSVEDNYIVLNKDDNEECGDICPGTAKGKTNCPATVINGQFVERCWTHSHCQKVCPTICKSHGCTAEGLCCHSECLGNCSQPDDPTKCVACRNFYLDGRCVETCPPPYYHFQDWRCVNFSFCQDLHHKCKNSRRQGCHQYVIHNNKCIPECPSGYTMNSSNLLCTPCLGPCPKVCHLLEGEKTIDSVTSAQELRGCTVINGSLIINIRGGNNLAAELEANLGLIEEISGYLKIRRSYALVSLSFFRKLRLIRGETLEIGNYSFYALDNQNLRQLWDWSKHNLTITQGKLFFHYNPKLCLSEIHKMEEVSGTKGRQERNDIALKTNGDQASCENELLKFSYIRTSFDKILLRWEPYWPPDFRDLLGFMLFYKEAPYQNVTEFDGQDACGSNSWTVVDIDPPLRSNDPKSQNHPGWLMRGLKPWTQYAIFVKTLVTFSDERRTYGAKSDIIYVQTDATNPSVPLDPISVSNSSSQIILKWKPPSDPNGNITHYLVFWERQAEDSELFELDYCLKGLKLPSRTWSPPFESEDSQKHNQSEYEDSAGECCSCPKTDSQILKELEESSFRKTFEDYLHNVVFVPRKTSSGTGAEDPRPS
# Insulin receptor (Homo sapiens), sequence (P06213 763-1382 limits assumed): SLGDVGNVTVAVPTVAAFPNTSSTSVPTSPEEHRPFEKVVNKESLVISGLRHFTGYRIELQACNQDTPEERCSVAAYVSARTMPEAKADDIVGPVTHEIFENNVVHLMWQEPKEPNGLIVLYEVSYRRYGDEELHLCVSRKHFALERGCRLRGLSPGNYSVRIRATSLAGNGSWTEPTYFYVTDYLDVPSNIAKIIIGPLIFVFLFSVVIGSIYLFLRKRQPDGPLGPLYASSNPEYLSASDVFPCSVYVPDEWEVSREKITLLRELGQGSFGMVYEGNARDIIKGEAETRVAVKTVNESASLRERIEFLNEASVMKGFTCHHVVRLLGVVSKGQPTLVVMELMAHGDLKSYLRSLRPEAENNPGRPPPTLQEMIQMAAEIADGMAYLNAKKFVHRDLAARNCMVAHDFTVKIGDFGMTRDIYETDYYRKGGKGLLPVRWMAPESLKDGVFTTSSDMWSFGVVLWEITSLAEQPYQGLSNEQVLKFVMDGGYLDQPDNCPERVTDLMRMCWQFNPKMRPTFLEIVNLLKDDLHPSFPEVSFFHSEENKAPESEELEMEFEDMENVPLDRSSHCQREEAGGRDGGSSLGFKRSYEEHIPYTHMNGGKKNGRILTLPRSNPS
# Insulin-like growth factor 1 receptor (Homo sapiens), sequence (P08069 31-736 limits assumed): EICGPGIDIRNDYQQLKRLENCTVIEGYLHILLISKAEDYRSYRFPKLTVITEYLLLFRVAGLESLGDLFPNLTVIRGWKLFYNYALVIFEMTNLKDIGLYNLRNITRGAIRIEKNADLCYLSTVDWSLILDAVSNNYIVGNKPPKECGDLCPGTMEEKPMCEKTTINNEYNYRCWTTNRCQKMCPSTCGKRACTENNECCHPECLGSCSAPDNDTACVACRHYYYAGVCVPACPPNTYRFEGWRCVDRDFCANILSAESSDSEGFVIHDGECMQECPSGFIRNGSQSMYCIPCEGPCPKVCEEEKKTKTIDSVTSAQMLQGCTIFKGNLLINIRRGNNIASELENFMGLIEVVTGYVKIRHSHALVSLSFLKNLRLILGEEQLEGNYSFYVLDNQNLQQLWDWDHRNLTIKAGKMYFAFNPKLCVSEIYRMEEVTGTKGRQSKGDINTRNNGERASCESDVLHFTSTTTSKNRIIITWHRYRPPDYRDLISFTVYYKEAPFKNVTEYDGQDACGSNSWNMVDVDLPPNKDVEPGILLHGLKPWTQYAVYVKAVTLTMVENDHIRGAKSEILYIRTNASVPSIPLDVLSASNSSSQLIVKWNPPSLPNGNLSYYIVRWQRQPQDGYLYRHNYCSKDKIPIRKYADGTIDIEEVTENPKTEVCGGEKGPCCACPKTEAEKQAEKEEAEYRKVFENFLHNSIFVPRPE
# Insulin-like growth factor 1 receptor (Homo sapiens), sequence (P08069 741-1367 limits assumed): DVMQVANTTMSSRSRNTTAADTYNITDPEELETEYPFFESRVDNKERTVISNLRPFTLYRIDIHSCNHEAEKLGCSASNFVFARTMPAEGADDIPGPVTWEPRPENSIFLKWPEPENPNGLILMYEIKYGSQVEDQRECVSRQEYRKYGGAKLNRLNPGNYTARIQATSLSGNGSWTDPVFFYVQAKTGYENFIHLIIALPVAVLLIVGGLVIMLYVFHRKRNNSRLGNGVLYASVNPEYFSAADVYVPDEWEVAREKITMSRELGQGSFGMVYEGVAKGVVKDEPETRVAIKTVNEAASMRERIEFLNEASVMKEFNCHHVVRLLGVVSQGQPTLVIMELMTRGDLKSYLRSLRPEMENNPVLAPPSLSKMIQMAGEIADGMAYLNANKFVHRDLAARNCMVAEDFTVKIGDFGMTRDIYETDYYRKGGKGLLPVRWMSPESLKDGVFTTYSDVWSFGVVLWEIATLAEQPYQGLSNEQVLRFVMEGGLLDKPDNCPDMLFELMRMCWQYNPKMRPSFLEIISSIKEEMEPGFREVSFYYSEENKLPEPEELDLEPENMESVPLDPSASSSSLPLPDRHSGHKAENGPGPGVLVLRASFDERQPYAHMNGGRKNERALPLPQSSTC
Compound,Activity [1],Activity [2]
N[C@@H](Cc1ccc(O)cc1)C(=O)N[C@@H](Cc1ccccc1)C(=O)N[C@@H](CCC(=O)O)C(=O)O (H-Tyr-Phe-Glu-OH),inactive,inactive
N[C@@H](Cc1ccc(O)cc1)C(=O)N[C@@H](Cc1ccccc1)C(=O)N[C@@H](CCC(=O)O)C(=O)N[C@@H](Cc1c[nH]c2ccccc12)C(=O)O (H-YFEW-OH),,inactive
H-EQEDEPEGAYFEWLE-OH,inactive,inactive
H-EQEDEPEGDYFEALE-OH,inactive,inactive
H-GEYVN-OH,inactive,inactive
H-KKKSPGEYVNAEFG-OH,inactive,inactive
H-KKKSPGEYVNIEAG-OH,inactive,inactive
H-PGEYVNI-OH,inactive,inactive
H-SPGEYVNIE-OH,inactive,inactive

# More lines, now with the values ahead:
Activity [1],Activity [2],Compound
inactive,inactive,N[C@@H](CC(=O)O)C(=O)N[C@@H](Cc1ccc(O)cc1)C(=O)N[C@@H](Cc1ccccc1)C(=O)N[C@@H](CCC(=O)O)C(=O)O (H-DYFE-OH)
,inactive,H-GDYFE-OH
inactive,inactive,H-KSPGEYVNIE-OH
inactive,inactive,H-PGEYVN-OH
inactive,inactive,H-SPGEYVNI-OH
